Laboratory results from ChEMBL document CHEMBL1201862, “PubChem BioAssay data set” (2004).
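Test compounds were applied to cells in 96-well plates for 48 hours at 5 doses. The concentration for 50% growth inhibition is given as GI50.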 The source made the active and inactive calls. Cut-off read from the data, not from the text of the source: active = GI50 up to about 1.1 µM and inactive = higher.

Experiments:
Assay in all cases: NCI anticancer screen, dose series, 48 h
UACC-62 = tested on: UACC-62
OVCAR-3 = tested on: OVCAR-3
CCRF-CEM = tested on: CCRF-CEM
SNB-19 = tested on: SNB-19
LOX IMVI = tested on: LOX IMVI
HCC 2998 = tested on: HCC 2998
MOLT-4 = tested on: MOLT-4
MDA-MB-231 = tested on: MDA-MB-231
TK-10 = tested on: TK-10
SK-MEL-2 = tested on: SK-MEL-2
Malme-3M = tested on: Malme-3M
NCI-H522 = tested on: NCI-H522
NCI-H460 = tested on: NCI-H460
SNB-75 = tested on: SNB-75
CAKI-1 = tested on: CAKI-1
SW-620 = tested on: SW-620
T47D = tested on: T47D
PC-3 = tested on: PC-3
SF-539 = tested on: SF-539
SK-MEL-5 = tested on: SK-MEL-5

SMILES	GI50 (UACC-62)	GI50 (OVCAR-3)	GI50 (CCRF-CEM)	GI50 (SNB-19)	GI50 (LOX IMVI)	GI50 (HCC 2998)	GI50 (MOLT-4)	GI50 (MDA-MB-231)	GI50 (TK-10)	GI50 (SK-MEL-2)	GI50 (Malme-3M)	GI50 (NCI-H522)	GI50 (NCI-H460)	GI50 (SNB-75)	GI50 (CAKI-1)	GI50 (SW-620)	GI50 (T47D)	GI50 (PC-3)	GI50 (SF-539)	GI50 (SK-MEL-5)
CCC(=O)OC1CCn2c1nc1c2C(=O)C(C)=C(N2CC2)C1=O (centres undefined)	0.0607 µM (active)	0.067 µM (active)	0.59 µM (active)	0.0989 µM (active)	0.0771 µM (active)	0.0615 µM (active)	3.41 µM (inactive)	1.42 µM (inactive)	0.0383 µM (active)	0.064 µM (active)	0.063 µM (active)	0.0361 µM (active)	0.045 µM (active)	0.0301 µM (active)	0.0509 µM (active)	0.0488 µM (active)	1.6 µM (inactive)	0.105 µM (active)	0.143 µM (active)	0.0294 µM (active)
S=C(Nc1ccccn1)Nc1ccccc1Cl	> 52.4 µM (inactive)	> 67.1 µM (inactive)	> 100 µM (inactive)	27 µM (inactive)	> 100 µM (inactive)	> 100 µM (inactive)	> 100 µM (inactive)	61.9 µM (inactive)	> 68.7 µM (inactive)	> 100 µM (inactive)	> 48.2 µM (inactive)	14.7 µM (inactive)	71 µM (inactive)	> 38.5 µM (inactive)	> 52.4 µM (inactive)	> 80.5 µM (inactive)	67.8 µM (inactive)	> 84.5 µM (inactive)	55.3 µM (inactive)	42.4 µM (inactive)
CCC(=O)Nc1cccc(/N=C/c2ccc(OC(=O)/C=C\c3ccccc3)cc2)c1	30.8 µM (inactive)	43.7 µM (inactive)	> 75 µM (inactive)	> 75 µM (inactive)	40.6 µM (inactive)	32.3 µM (inactive)	27 µM (inactive)	73.3 µM (inactive)	> 75 µM (inactive)	> 75 µM (inactive)	40.4 µM (inactive)	33.7 µM (inactive)	61.5 µM (inactive)	12.3 µM (inactive)	> 75 µM (inactive)	> 75 µM (inactive)	8.26 µM (inactive)	67 µM (inactive)	14.8 µM (inactive)	29.9 µM (inactive)
CC1(C)O[C@H]2OC3CCC(=O)CC3(O)[C@H]2O1 (some centres undefined)	> 100 µM (inactive)	> 100 µM (inactive)	> 100 µM (inactive)	> 100 µM (inactive)	> 100 µM (inactive)	> 100 µM (inactive)	> 100 µM (inactive)	> 100 µM (inactive)	> 100 µM (inactive)	> 100 µM (inactive)	> 51.6 µM (inactive)	> 100 µM (inactive)	> 100 µM (inactive)	> 100 µM (inactive)	> 100 µM (inactive)	> 100 µM (inactive)	> 100 µM (inactive)	> 100 µM (inactive)	> 100 µM (inactive)	> 100 µM (inactive)
CCCCc1ccc(Nc2nc(OC)c3ncn(C4CC(O)C(CO)O4)c3n2)cc1 (centres undefined)	17 µM (inactive)	22.4 µM (inactive)	17.5 µM (inactive)	19.2 µM (inactive)	12.1 µM (inactive)	6.44 µM (inactive)	16.9 µM (inactive)	17.7 µM (inactive)	23.4 µM (inactive)	20.2 µM (inactive)	20.7 µM (inactive)	1.86 µM (inactive)	16.4 µM (inactive)	18 µM (inactive)	1.85 µM (inactive)	19.7 µM (inactive)	18.9 µM (inactive)	18.1 µM (inactive)	13.7 µM (inactive)	18.7 µM (inactive)
COc1cccc(C2SCC(=O)N2c2ccc(-c3ccc(-n4c(-c5ccccc5)nc5ccccc5c4=O)cc3)cc2)c1OC (centres undefined)	29 µM (inactive)	> 100 µM (inactive)	67.1 µM (inactive)	> 100 µM (inactive)	50.7 µM (inactive)	> 100 µM (inactive)	60.8 µM (inactive)	> 100 µM (inactive)	> 100 µM (inactive)	> 100 µM (inactive)	> 100 µM (inactive)	> 100 µM (inactive)	> 100 µM (inactive)	22 µM (inactive)	67.8 µM (inactive)	> 10 µM (inactive)	24.5 µM (inactive)	> 100 µM (inactive)	32.6 µM (inactive)	30.1 µM (inactive)
CC(C)C1C(=O)N2CCCC2C2(O)OC(NC(=O)C3C=C4c5cccc6[nH]cc(c56)CC4N(C)C3)(C(C)C)C(=O)N12 (centres undefined)	18.1 µM (inactive)	17.9 µM (inactive)	24.7 µM (inactive)	44.4 µM (inactive)	18.1 µM (inactive)	19.7 µM (inactive)	17 µM (inactive)	15.9 µM (inactive)	21.8 µM (inactive)	17.7 µM (inactive)		21 µM (inactive)	19 µM (inactive)	15.3 µM (inactive)	16.7 µM (inactive)	30.1 µM (inactive)	47.6 µM (inactive)	21.1 µM (inactive)	19.8 µM (inactive)	20.6 µM (inactive)
COc1ccc(OC)c(C[P+](c2ccccc2)(c2ccccc2)c2ccccc2)c1	0.971 µM (active)	2.54 µM (inactive)	2.56 µM (inactive)	2.67 µM (inactive)	0.968 µM (active)	3.54 µM (inactive)	3.42 µM (inactive)	3.27 µM (inactive)	2.7 µM (inactive)		5.56 µM (inactive)	9.23 µM (inactive)	3.84 µM (inactive)	3.71 µM (inactive)	23.4 µM (inactive)	2.61 µM (inactive)	2.87 µM (inactive)	1.57 µM (inactive)	3.82 µM (inactive)	0.991 µM (active)
O=c1ccc2[n+]([O-])c3ccc(O)cc3oc-2c1 [RESAZURIN]	2.59 µM (inactive)	13.2 µM (inactive)	30 µM (inactive)		3.44 µM (inactive)	34.6 µM (inactive)	13.7 µM (inactive)	29.6 µM (inactive)	36 µM (inactive)	10 µM (inactive)	4.02 µM (inactive)	12.1 µM (inactive)	12.3 µM (inactive)	3.45 µM (inactive)	32.5 µM (inactive)	11.5 µM (inactive)	56.4 µM (inactive)	7.23 µM (inactive)	15.9 µM (inactive)	2.72 µM (inactive)
Cn1nc2ccc([N+](=O)[O-])cc2[n+]1[O-]	> 100 µM (inactive)	> 100 µM (inactive)	> 100 µM (inactive)	> 100 µM (inactive)		> 100 µM (inactive)	> 100 µM (inactive)	> 100 µM (inactive)	> 100 µM (inactive)	> 100 µM (inactive)	> 100 µM (inactive)	> 100 µM (inactive)	> 100 µM (inactive)	> 100 µM (inactive)	> 100 µM (inactive)		> 100 µM (inactive)	> 100 µM (inactive)	> 100 µM (inactive)	> 100 µM (inactive)
CC(=O)c1nc(C#N)c(N)o1	> 100 µM (inactive)	> 100 µM (inactive)	> 100 µM (inactive)	> 100 µM (inactive)	> 100 µM (inactive)	> 100 µM (inactive)	> 100 µM (inactive)	> 100 µM (inactive)	> 100 µM (inactive)	> 100 µM (inactive)	> 100 µM (inactive)	> 100 µM (inactive)	> 100 µM (inactive)	> 100 µM (inactive)	> 100 µM (inactive)	> 100 µM (inactive)	> 100 µM (inactive)	> 100 µM (inactive)	> 100 µM (inactive)	
Clc1ccc(Nc2ncco2)cc1Cl	> 10 µM (inactive)	> 10 µM (inactive)	> 10 µM (inactive)	> 10 µM (inactive)	> 10 µM (inactive)	> 10 µM (inactive)	> 10 µM (inactive)	> 10 µM (inactive)	> 10 µM (inactive)		> 10 µM (inactive)	> 10 µM (inactive)	> 10 µM (inactive)	> 10 µM (inactive)	> 10 µM (inactive)	> 10 µM (inactive)	> 10 µM (inactive)	> 10 µM (inactive)	> 10 µM (inactive)	> 10 µM (inactive)
COC(=O)c1ccccc1/C=C1/Cc2cccc(C)c2C1=O	52.2 µM (inactive)	> 100 µM (inactive)	> 100 µM (inactive)		> 100 µM (inactive)	> 100 µM (inactive)	> 100 µM (inactive)	> 100 µM (inactive)	> 100 µM (inactive)		> 100 µM (inactive)	> 100 µM (inactive)	> 100 µM (inactive)	35.4 µM (inactive)	69.3 µM (inactive)	> 100 µM (inactive)	42.5 µM (inactive)	> 100 µM (inactive)	> 100 µM (inactive)	32.8 µM (inactive)
COc1ccc(C2=Nn3c(nc4sc5c(c4c3=O)CCCC5)SC2)cc1	> 100 µM (inactive)	> 100 µM (inactive)	> 100 µM (inactive)		> 100 µM (inactive)	> 100 µM (inactive)	> 100 µM (inactive)	> 100 µM (inactive)	57.8 µM (inactive)		> 100 µM (inactive)	> 100 µM (inactive)	> 100 µM (inactive)	> 10 µM (inactive)	> 100 µM (inactive)	> 100 µM (inactive)	> 100 µM (inactive)	> 100 µM (inactive)	> 100 µM (inactive)	> 100 µM (inactive)
